Legend:
[1] = system: mice; test: In vivo delivery of Ffluc mRNA LNP in mice, intramuscular administration, luminescence relative to MC3; design: species or system mice (female Balb/C); conditions: fold change in luminescence intensity relative to MC3; 50 μL of 0.1 mg/mL mRNA LNP into right thigh; 6 h after injection
Experimental: The prepared encapsulation solution was applied to mice in the following manner, and its delivery efficiency in mice was tested. Among them, DLin-MC3-DMA (MC3) was a cationic liposome for delivering small nucleic acids that was approved by the FDA for marketing in 2018, which has high nucleic acid drug delivery efficiency and biosafety, and was usually used as the industry gold standard in the screening process of cationic lipids. In the evaluation of mice experiments, the ratio of nucleic acid delivery efficiency normalized to MC3 was greater than 0.1, which was considered to be a cationic lipid with high delivery efficiency.
The LNP solution was diluted with 50 mM TBS, pH 7.4 to a concentration of 0.1 mg/mL mRNA.
2. The mice involved in this study were female Balb/C, weighing 18-22 g, 6-8 weeks old, with 5 mice in each group.
3. The dosing solution was kept at 4° C. prior to injection.
4. 50 μL of LNP solution was injected into the right thigh of the mice.
5. The mice were injected intraperitoneally with 200 μL of 1.5 mg/mL D-luciferin solution 6 h after injection.
6. The in vivo luminescence images of the mice were obtained using the IVIS system (Aniview).
7. The luminescence intensity of each mice was measured using Aniview software.
8. MC3 lipid nanoparticles were used as a positive control. The in vivo efficacy of each cationic lipid tested was recorded as the fold change in luminescence intensity relative to MC3 (ratio normalized to MC3).

[2] = LNP size and PDI by dynamic laser light scattering; type: physicochemical; conditions: LNP: 50% cationic lipid, 38.5% cholesterol, 10% DSPC, 1.5% DMG-PEG2000; Ffluc mRNA
Outline: (§1)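 LNPs of cationic lipid/cholesterol/DSPC/DMG-PEG2000 at 50/38.5/10/1.5 mol% in ethanol, mixed with Ffluc mRNA at 0.2 mg/mL in 10 mM pH 4.0 citrate via T-mixer at 40 mL/min. Dialyzed overnight against 50 mM Tris-buffered saline pH 7.4 and sieved; PDI by dynamic light scattering, encapsulation by Ribogreen.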

[3] = system: mice; test: In vivo delivery of Ffluc mRNA LNP in mice, intravenous administration, luminescence relative to MC3; design: species or system mice (female Balb/C); conditions: fold change in luminescence intensity relative to MC3; 0.06 mg/kg tail vein; 6 h after injection
Outline: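 Female Balb/C mice (18-22 g, 6-8 weeks, n=5) received Ffluc mRNA LNP at 0.06 mg/kg by tail vein in 50 mM TBS pH 7.4. Six hours later, intraperitoneal D-luciferin was given and whole-body luminescence imaged, with each lipid reported as fold change relative to MC3 LNP.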

[4] = mRNA encapsulation efficiency of LNP by Ribogreen assay; type: physicochemical; conditions: LNP: 50% cationic lipid, 38.5% cholesterol, 10% DSPC, 1.5% DMG-PEG2000; Ffluc mRNA
Outline: as §1

CCCCCCCCCC/C(=C\C(=O)OCCCCN(CCCO)CCCCOC(=O)/C=C(/CCCCC)CCCCCCCCCC)CCCCC [CPL-026, ((3-hydroxypropyl)azanediyl)bis(butane-4,1-diyl) (2Z,2′Z)-bis(3-pentyltridec-2-enoate)]
In Vivo Efficacy Normalized To Mc3 In Mice (Intramuscular Injection) [1]: 0.92 | PDI [2]: 0.2143 | Size (nm) [2]: 71.34 nm | In Vivo Efficacy Normalized To Mc3 In Mice (Intravenous Injection) [3]: 2.51 | Encapsulation Rate [4]: 95%

CCCCCCCCCC/C(=C/C(=O)OCCCCCCN(CCCO)CCCCCCOC(=O)/C=C(\CCC)CCCCCCCCCC)CCC [CPL-062-01, ((3-hydroxypropyl)azanediyl)bis(hexane-6,1-diyl) (2E,2′E)-bis(3-propyltridec-2-enoate)]
In Vivo Efficacy Normalized To Mc3 In Mice (Intramuscular Injection) [1]: 1.06 | PDI [2]: 0.0828 | Size (nm) [2]: 67.12 nm | In Vivo Efficacy Normalized To Mc3 In Mice (Intravenous Injection) [3]: 2.21 | Encapsulation Rate [4]: 98%

CCCCCCCCCC/C(=C/C(=O)OCCCCCCN(CCCO)CCCCCCOC(=O)/C=C(\CCCC)CCCCCCCCCC)CCCC [CPL-066, ((3-hydroxypropyl)azanediyl)bis(hexane-6,1-diyl) (2E,2′E)-bis(3-butyl-2-tridecenoate)]
In Vivo Efficacy Normalized To Mc3 In Mice (Intramuscular Injection) [1]: 4.04 | PDI [2]: 0.19 | Size (nm) [2]: 87.2 nm | In Vivo Efficacy Normalized To Mc3 In Mice (Intravenous Injection) [3]: 1.95 | Encapsulation Rate [4]: 98%

CCCCCCCC/C(=C/C(=O)OCCCCCCN(CCCO)CCCCCCOC(=O)/C=C(\CCCCC)CCCCCCCC)CCCCC [CPL-069-01, ((3-hydroxypropyl)azanediyl)bis(hexane-6,1-diyl) (2E,2′E)-bis(3-pentylundec-2-enoate)]
In Vivo Efficacy Normalized To Mc3 In Mice (Intramuscular Injection) [1]: 1.72 | PDI [2]: 0.126 | Size (nm) [2]: 84.59 nm | In Vivo Efficacy Normalized To Mc3 In Mice (Intravenous Injection) [3]: 2.70 | Encapsulation Rate [4]: 97%

CCCCCCCCCC/C(=C\C(=O)OCCCCCCN(CCCO)CCCCCCOC(=O)/C=C(/CCCCC)CCCCCCCCCC)CCCCC [CPL-070, ((3-hydroxypropyl)azanediyl)bis(hexane-6,1-diyl) (2Z,2′Z)-bis(3-pentyltridec-2-enoate)]
In Vivo Efficacy Normalized To Mc3 In Mice (Intramuscular Injection) [1]: 1.85 | PDI [2]: 0.2173 | Size (nm) [2]: 100.4 nm | In Vivo Efficacy Normalized To Mc3 In Mice (Intravenous Injection) [3]: 3.74 | Encapsulation Rate [4]: 95%

CCCCCCC(=CC(=O)OCCCCCCN(CCCO)CCCCCCOC(=O)C=C(CCCCCC)CCCCCC)CCCCCC [CPL-071, ((3-hydroxypropyl)azanediyl)bis(hexane-6,1-diyl) (2E,2′E)-bis(3-hexylnon-2-enoate)]
In Vivo Efficacy Normalized To Mc3 In Mice (Intramuscular Injection) [1]: 7.81 | PDI [2]: 0.1733 | Size (nm) [2]: 88.06 nm | In Vivo Efficacy Normalized To Mc3 In Mice (Intravenous Injection) [3]: 2.05 | Encapsulation Rate [4]: 92%

CCCCCCC/C(=C/C(=O)OCCCCCCN(CCCO)CCCCCCOC(=O)/C=C(\CCCC)CCCCCCC)CCCC [CPL-074, ((3-hydroxypropyl)azanediyl)bis(hexane-6,1-diyl) (2E,2′E)-bis(3-butyldec-2-enoate)]
In Vivo Efficacy Normalized To Mc3 In Mice (Intramuscular Injection) [1]: 7.93 | PDI [2]: 0.3691 | Size (nm) [2]: 95.7 nm | In Vivo Efficacy Normalized To Mc3 In Mice (Intravenous Injection) [3]: 2.40 | Encapsulation Rate [4]: 99%

CCCCCCCCCC/C(=C/C(=O)OCCCCCCN(CCCO)CCCCCCOC(=O)/C=C(\CCCCCCCC)CCCCCCCCCC)CCCCCCCC [CPL-079, ((3-hydroxypropyl)azanediyl)bis(hexane-6,1-diyl) (2E,2′E)-bis(3-octyltridec-2-enoate)]
In Vivo Efficacy Normalized To Mc3 In Mice (Intramuscular Injection) [1]: 1.30 | PDI [2]: 0.1557 | Size (nm) [2]: 94.46 nm | In Vivo Efficacy Normalized To Mc3 In Mice (Intravenous Injection) [3]: 4.95 | Encapsulation Rate [4]: 94%

CCCCCCCCCC/C(=C/C(=O)OCCCCCCCN(CCCO)CCCCCCCOC(=O)/C=C(\CCCCC)CCCCCCCCCC)CCCCC [CPL-092-01, ((3-hydroxypropyl)azanediyl)di(heptane-7,1-diyl) (2E,2′E)-di(3-pentyltridec-2-enoate)]
In Vivo Efficacy Normalized To Mc3 In Mice (Intramuscular Injection) [1]: 2.20 | PDI [2]: 0.21 | Size (nm) [2]: 98.6 nm | In Vivo Efficacy Normalized To Mc3 In Mice (Intravenous Injection) [3]: 8.96 | Encapsulation Rate [4]: 97%

CCCCCCC/C(=C/C(=O)OCCCCCCCN(CCCO)CCCCCCCOC(=O)/C=C(\CCCC)CCCCCCC)CCCC [CPL-096, ((3-hydroxypropyl)azanediyl)bis(heptane-7,1-diyl)(2E,2′E)-bis(3-butyldec-2-enoate)]
In Vivo Efficacy Normalized To Mc3 In Mice (Intramuscular Injection) [1]: 2.59 | PDI [2]: 0.1973 | Size (nm) [2]: 71.62 nm | In Vivo Efficacy Normalized To Mc3 In Mice (Intravenous Injection) [3]: 2.06 | Encapsulation Rate [4]: 95%

CCCCC/C=C\C/C=C\CCCCCCCC(=O)OCC(COC(=O)/C=C(/CCCC)CCCCCC)COC(=O)OCCCN1CCCCC1 (centres unmarked) [CPL-416, 3-(((Z)-3-butylnon-2-enoyl)oxy)-2-((((3-(piperidin-1-yl)propoxy)carbonyl)oxy)methyl)propyl(9Z,12Z)-octadeca-9,12-dienoate]
PDI [2]: 0.009 | Size (nm) [2]: 91.52 nm | In Vivo Efficacy Normalized To Mc3 In Mice (Intravenous Injection) [3]: 0.43 | Encapsulation Rate [4]: 96%

CCCCC/C=C\C/C=C\CCCCCCCC(=O)OCC(COC(=O)/C=C(\CCCCC)CCCCCCCC)COC(=O)OCCCN1CCCCC1 (centres unmarked) [CPL-421, 3-(((E)-3-pentylundec-2-enoyl)oxy)-2-((((3-(piperidin-1-yl)propoxy)carbonyl)oxy)methyl)propyl(9Z,12Z)-octadeca-9,12-dienoate]
PDI [2]: 0.1904 | Size (nm) [2]: 82.69 nm | In Vivo Efficacy Normalized To Mc3 In Mice (Intravenous Injection) [3]: 0.37 | Encapsulation Rate [4]: 94%

CCCCC/C=C\C/C=C\CCCCCCCC(=O)OCC(COC(=O)/C=C(\CCCCCCC)CCCCCCCC)COC(=O)OCCCN1CCCCC1 (centres unmarked) [CPL-428, 3-(((E)-3-heptylundec-2-enoyl)oxy)-2-((((3-(piperidin-1-yl)propoxy)carbonyl)oxy)methyl)propyl(9Z,12Z)-octadeca-9,12-dienoate]
PDI [2]: 0.1411 | Size (nm) [2]: 73.57 nm | In Vivo Efficacy Normalized To Mc3 In Mice (Intravenous Injection) [3]: 0.34 | Encapsulation Rate [4]: 96%

CCCCC/C=C\C/C=C\CCCCCCCC(=O)OCC(COC(=O)/C=C(\CCCCCC)CCCCCCC)COC(=O)OCC1CCN(CC)CC1 (centres unmarked) [CPL-449, 3-((((1-ethylpiperidin-4-yl)methoxy)carbonyl)oxy)-2-((((E)-3-hexyldec-2-enoyl)oxy)methyl)propyl(9Z,12Z)-octadeca-9,12-dienoate]
PDI [2]: 0.0875 | Size (nm) [2]: 73.57 nm | In Vivo Efficacy Normalized To Mc3 In Mice (Intravenous Injection) [3]: 0.49 | Encapsulation Rate [4]: 97%

CCCCC/C=C\C/C=C\CCCCCCCC(=O)OCC(COC(=O)/C=C(/CCCCCCCC)CCCCCCCCCC)COC(=O)OCC1CCN(CC)CC1 (centres unmarked) [CPL-453]
PDI [2]: 0.0653 | Size (nm) [2]: 81.2 nm | In Vivo Efficacy Normalized To Mc3 In Mice (Intravenous Injection) [3]: 0.82 | Encapsulation Rate [4]: 98%

CCCCC/C=C\C/C=C\CCCCCCCC(=O)OCC(COC(=O)C=C(CCCCCCCCCC)CCCCCCCCCC)COC(=O)OCC1CCN(CC)CC1 (centres unmarked) [CPL-454, 3-((3-decyltridec-2-enoyl)oxy)-2-(((((1-ethylpiperidin-4-yl)methoxy)carbonyl)oxy)methyl)propyl(9Z,12Z)-octadeca-9,12-dienoate]
PDI [2]: 0.1315 | Size (nm) [2]: 83.51 nm | In Vivo Efficacy Normalized To Mc3 In Mice (Intravenous Injection) [3]: 0.88 | Encapsulation Rate [4]: 99%

CCCCCCCCCC/C(=C/C(=O)OCCCCCCCCCCN(CCCO)CCCCCOC(=O)/C=C(\CCCC)CCCCCCCCCC)CCC [CPL-1093, 10-(((5-(E)-3-butyltridec-2-enoyl)oxy)pentyl)((3-hydroxypropyl)amino)decyl(E)-3-propyl-2-tridecenoate]
PDI [2]: 0.21 | Size (nm) [2]: 112.08 nm | In Vivo Efficacy Normalized To Mc3 In Mice (Intravenous Injection) [3]: 1.55 | Encapsulation Rate [4]: 99%

((3-hydroxypropyl)azanediyl)bis(butane-4,1-diyl) (2E,2′E)-bis(2-hexylidenedecanoate) [CPL-025]
PDI [2]: 0.2 | Size (nm) [2]: 92.1 nm | In Vivo Efficacy Normalized To Mc3 In Mice (Intravenous Injection) [3]: 1.34 | Encapsulation Rate [4]: 97%

((3-hydroxypropyl)azanediyl)bis(butane-4,1-diyl)(2E,2′E)-bis(3-butylundec-2-enoate) [CPL-021]
PDI [2]: 0.0729 | Size (nm) [2]: 69.64 nm | In Vivo Efficacy Normalized To Mc3 In Mice (Intravenous Injection) [3]: 0.75 | Encapsulation Rate [4]: 95%
